Results: US20210121577A1, “FILM COATED TABLET FOR THE TREATMENT OF ACUTE PAIN” (SANOFI-AVENTIS DEUTSCHLAND GMBH, priority 2014, published 2021)

Tested on: post-operative dental pain
Test: Clinical trial in patients with post-operative dental pain (model for acute pain), randomized double-blind parallel-group
Type: in vivo
Conditions: single dose, ibuprofen 400 mg, caffeine 100 mg or fixed combination
Description: Male and female patients between the ages of 18 and 55 years, scheduled for the extraction of 3 to 4 unsound wisdom teeth, with at least 2 extracted molars were recruited; the baseline of dental pain intensity must be at least moderate on a verbal evaluation scale and at least 5 on a numerical evaluation scale ranging from 0 to 10.
The pain intensity (PI) was evaluated in a diary before administration and at 0.25, 0.5, 0.75, 1, 1.5, 2, 3, 4, 5, 6, 7 and 8 hours after the first dose of the study medication using an 11-point numerical rating scale (NPRS) from 0=“no pain” to 10=“worst possible pain”.
The pain relief (PAR) beginning from pain onset was evaluated in a patient diary using a 5-point rating scale (VRS) (0=no pain relief; 1=a little pain relief; 2=some pain relief; 3=much pain relief; 4=complete pain relief) at the same time points as for the PI evaluation.
As soon as a patient needed an emergency medication or a second dose of the medication within less than 8 hours, PI and PAR were evaluated before the emergency medication or second dose was administered.
The time-weighted sum of pain relief (PAR) and the pain intensity difference (PID) relative to baseline between 0 and 8 hours is determined as follows:
Higher values of the SPRID0-8 h likewise indicate greater benefit for the patient.

CC(C)Cc1ccc(C(C)C(=O)O)cc1 (racemic) [Ibuprofen, (+/−) 2-(p-isobutylphenyl)-propionic acid]
Median duration of action (Kaplan-Meyer analysis): 7.1 h | Adjusted Mean SPRID0-8 h value (time-weighted sum of pain relief and pain intensity difference from 0 to 8 hours) (study stage 1, primary endpoint, higher = greater benefit): 40.165 | Adjusted Mean SPRID0-2 h value (time-weighted sum of PAR and PID from 0 to 2 hours) (study stage 1, secondary endpoint): 6.990
